Data as given in US11952349B2, “Anti-cancer nuclear hormone receptor-targeting compounds” (Nuvation Bio Inc., priority 2019, dated 2024).

biological target: T1, GR, cytosol from IM-9 cells (Homo sapiens, UniProt P04150); experiment: GR binding assay, 3H-Dexamethasone; conditions: Table 8; 3H-Dexamethasone 1.5 nM
T1 construct: endogenous in cells; host or cells: IM-9 cells (cytosol)
T1 sequence (P04150 1-777): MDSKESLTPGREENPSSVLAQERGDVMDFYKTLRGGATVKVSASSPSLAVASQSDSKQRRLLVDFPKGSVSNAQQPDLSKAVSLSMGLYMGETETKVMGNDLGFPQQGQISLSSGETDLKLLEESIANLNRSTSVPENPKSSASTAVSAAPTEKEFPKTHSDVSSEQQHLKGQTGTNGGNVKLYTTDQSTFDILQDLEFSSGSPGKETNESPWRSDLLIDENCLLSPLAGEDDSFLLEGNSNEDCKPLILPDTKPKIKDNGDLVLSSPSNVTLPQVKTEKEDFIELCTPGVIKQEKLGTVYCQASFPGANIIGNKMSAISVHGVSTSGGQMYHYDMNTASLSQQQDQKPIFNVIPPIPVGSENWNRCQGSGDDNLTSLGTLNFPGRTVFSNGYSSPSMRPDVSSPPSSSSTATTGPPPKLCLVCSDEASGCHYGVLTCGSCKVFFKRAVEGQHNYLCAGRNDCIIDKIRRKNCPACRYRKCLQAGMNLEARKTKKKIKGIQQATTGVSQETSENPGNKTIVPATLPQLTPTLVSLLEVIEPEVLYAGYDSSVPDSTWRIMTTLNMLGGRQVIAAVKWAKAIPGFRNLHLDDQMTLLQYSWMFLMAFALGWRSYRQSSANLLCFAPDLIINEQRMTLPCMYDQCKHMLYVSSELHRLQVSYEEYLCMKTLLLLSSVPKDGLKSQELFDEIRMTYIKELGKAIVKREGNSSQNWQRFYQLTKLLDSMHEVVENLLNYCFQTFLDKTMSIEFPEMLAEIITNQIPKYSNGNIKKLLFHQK
Method: GR binding assay: To assess GR binding, test compound (top dose 1 μM, 4 fold serial dilution, 8 point dose response) and control (dexamethasone) were transferred to the assay plate. Cytosol from IM-9 cells was added to the plate, followed by addition of radiolabeled ^3H-Dexamethasone at a final concentration of 1.5 nM. The plate was sealed, and the reaction was incubated at 300 rpm at 4° C. for 24 hrs. Radioligand absorption buffer (10 mM Tris-HCl, pH 7.4; 1.5 mM EDTA; 1 mM DTT; 0.25% charcoal; 0.0025% dextran) was then added to the plate, mixed, and incubated at 4° C. for 15 minutes. The plate was then centrifuged at […] for 30 minutes at 4° C. The supernatant was transferred to the scint-tube and Tri-carb was used for scintillation counting. The data was analyzed using GraphPadPrism v5.0 and binding IC50 was determined as the concentration where 50% inhibition of radioligand binding was observed.

IC50 | SMILES
< 10 nM | CC#C[C@]1(O)CC[C@H]2[C@@H]3CCC4=CC(=O)CCC4=C3[C@@H](c3ccc(N(C)CCCCCC(=O)N4CCN(C(=O)c5cc(Cc6n[nH]c(=O)c7ccccc67)ccc5F)CC4)cc3)C[C@@]21C [Compound 135, 4-(4-fluoro-3-(4-(6-((4-((8S,11R,13S,14S,17S)-17-hydroxy-13-methyl-3-oxo-17-(prop-1-ynyl)-2,3,6,7,8,11,12,13,14,15,16,17-dodecahydro-1H-cyclopenta[a]phenanthren-11-yl)phenyl)(methyl)amino)hexanoyl)piperazine-1-carbonyl)benzyl)phthalazin-1(2H)-one]
< 10 nM | CC(=O)O[C@]1(C(C)=O)CC[C@H]2[C@@H]3CCC4=CC(=O)CCC4=C3[C@@H](c3ccc(N(C)CCCCCC(=O)N4CCN(C(=O)c5cc(Cc6n[nH]c(=O)c7ccccc67)ccc5F)CC4)cc3)C[C@@]21C [Compound 1378, (8S,11R,13S,14S,17R)-17-acetyl-11-(4-((6-(4-(2-fluoro-5-((4-oxo-3,4-dihydrophthalazin-1-yl)methyl)benzoyl)piperazin-1-yl)-6-oxohexyl)(methyl)amino)phenyl)-13-methyl-3-oxo-2,3,6,7,8,11,12,13,14,15,16,17-dodecahydro-1H-cyclopenta[a]phenanthren-17-yl acetate]
< 10 nM | CC(=O)O[C@]1(C(C)=O)CC[C@H]2[C@@H]3CCC4=CC(=O)CCC4=C3[C@@H](c3ccc(N(C)CCCCCC(=O)NCCOCCOCC(=O)N4CCN(C(=O)c5cc(Cc6n[nH]c(=O)c7ccccc67)ccc5F)CC4)cc3)C[C@@]21C [Compound 1384, (8S,11R,13S,14S,17R)-17-acetyl-11-(4-((6-(2-(2-(2-(4-(2-fluoro-5-((4-oxo-3,4-dihydrophthalazin-1-yl)methyl)benzoyl)piperazin-1-yl)-2-oxoethoxy)ethoxy)ethylamino)-6-oxohexyl)(methyl)amino)phenyl)-13-methyl-3-oxo-2,3,6,7,8,11,12,13,14,15,16,17-dodecahydro-1H-cyclopenta[a]phenanthren-17-yl acetate]
< 10 nM | CC#C[C@]1(O)CC[C@H]2[C@@H]3CCC4=CC(=O)CCC4=C3[C@@H](c3ccc(N(C)CCCCCC(=O)NCCOCCOCC(=O)N4CCN(C(=O)c5cc(Cc6n[nH]c(=O)c7ccccc67)ccc5F)CC4)cc3)C[C@@]21C [Compound 1429, N-(2-(2-(2-(4-(2-fluoro-5-((4-oxo-3,4-dihydrophthalazin-1-yl)methyl)benzoyl)piperazin-1-yl)-2-oxoethoxy)ethoxy)ethyl)-6-((4-((8S,11R,13S,14S,17S)-17-hydroxy-13-methyl-3-oxo-17-(prop-1-ynyl)-2,3,6,7,8,11,12,13,14,15,16,17-dodecahydro-1H-cyclopenta[a]phenanthren-11-yl)phenyl)(methyl)amino)hexanamide]

SMILES | IC50
C[C@]12CC[C@H]3[C@@H](CCC4=CC(=O)CC[C@@]43C)[C@@H]1CC[C@@H]2C(=O)COCCCCCC(=O)N1CCN(C(=O)c2cc(Cc3n[nH]c(=O)c4ccccc34)ccc2F)CC1 [Compound 1386, 4-(3-(4-(6-(2-((8S,9S,10R,13S,14S,17S)-10,13-dimethyl-3-oxo-2,3,6,7,8,9,10,11,12,13,14,15,16,17-tetradecahydro-1H-cyclopenta[a]phenanthren-17-yl)-2-oxoethoxy)hexanoyl)piperazine-1-carbonyl)-4-fluorobenzyl)phthalazin-1(2H)-one] | 100 to 1000 nM

system: 22Rv1 cells; experiment: Cell viability assay (CellTiterGlo, 6 days) 22Rv1; format: cell-based; conditions: Homo sapiens, 22Rv1, 144 h; Table 7; cell viability, 6 days; read-out: 22RV1
Method: Cell viability assay: LNCap, 22Rv1, and T47D cells were seeded at a density of 1500-2000 cells/well in 96 well plates, and a ‘T0’ (timepoint 0) was included along with the assay plate. The plates were then incubated at 37° C., 5% CO2 in a cell culture incubator overnight. On the next day, the ‘T0’ plate was assayed using CellTiterGlo (Promega, Inc) according to the manufacturer's instructions. The appropriate compounds were diluted in DMSO and added to the assay plate (final DMSO concentration of 0.2%) on the next day. The assay plates were incubated for 6 days at 37° C., 5% CO2. After the incubation period, the plates were assayed using CellTiterGlo (Promega, Inc) according to the manufacturer's instructions and luminescence was read on the EnVision plate reader. Inhibition the tested compounds was determined by the following formula: Inhibition rate (%)=(1−(RLU compound−RLU day0)/(RLU control−RLU day0))*100%. GraphPadPrism was used to analyze the data and determine absolute IC50 values.

SMILES | IC50
C[C@@]12CCC(=O)C[C@H]1CC[C@H]1[C@H]2CC[C@]2(C)[C@@H]1CC[C@H]2OCCCCCCNC(=O)c1cc(Cc2n[nH]c(=O)c3ccccc23)ccc1F (stereo in doubt) [Compound 1426, N-(6-((5R,8S,9R,10R,13R,14R,17R)-10,13-dimethyl-3-oxohexadecahydro-1H-cyclopenta[a]phenanthren-17-yloxy)hexyl)-2-fluoro-5-((4-oxo-3,4-dihydrophthalazin-1-yl)methyl)benzamide] | 1000 to 10000 nM
C[C@]12C[C@H](CCCCCC(=O)N3CCN(C(=O)c4cc(Cc5n[nH]c(=O)c6ccccc56)ccc4F)CC3)C3=C4CCC(=O)C=C4CC[C@H]3[C@@H]1CCC2O (stereo partly drawn) [Compound 138, 4-(4-fluoro-3-(4-(6-((8S,11S,13S,14S)-17-hydroxy-13-methyl-3-oxo-2,3,6,7,8,11,12,13,14,15,16,17-dodecahydro-1H-cyclopenta[a]phenanthren-11-yl)hexanoyl)piperazine-1-carbonyl)benzyl)phthalazin-1(2H)-one] | 100 to 1000 nM
Cn1ncnc1C1c2n[nH]c(=O)c3cc(F)cc(c23)N[C@@H]1c1ccc(NC(=O)CCCCCO[C@@H]2CC[C@H]3[C@@H]4CC[C@H]5CCCC[C@]5(C)[C@H]4CC[C@]23C)cc1 (stereo partly drawn) [Compound 1128, 6-((5R,8R,9S,10S,13S,14S,17R)-10,13-dimethylhexadecahydro-1H-cyclopenta[a]phenanthren-17-yloxy)-N-(4-((8S)-5-fluoro-9-(1-methyl-1H-1,2,4-triazol-5-yl)-3-oxo-3,7,8,9-tetrahydro-2H-pyrido[4,3,2-de]phthalazin-8-yl)phenyl)hexanamide] | 1000 to 10000 nM
C[C@]12Cc3cn[nH]c3C[C@@H]1CC[C@@H]1[C@@H]2CC[C@]2(C)[C@@H](OCCCCCC(=O)N3CCN(C(=O)c4cc(Cc5n[nH]c(=O)c6ccccc56)ccc4F)CC3)CC[C@@H]12 [Compound 1394, 4-(3-(4-(6-(((1S,3aS,3bR,5aS,10aS,10bS,12aS)-10a,12a-dimethyl-1,2,3,3a,3b,4,5,5a,6,7,10,10a,10b,11,12,12a-hexadecahydrocyclopenta[5,6]naphtho[1,2-f]indazol-1-yl)oxy)hexanoyl)piperazine-1-carbonyl)-4-fluorobenzyl)phthalazin-1(2H)-one] | 100 to 1000 nM
